In general, Ki refers to a measure of affinity in units of concentration, obtained from inhibition or displacement. Low values mean a stronger hold on the target, high ones a looser hold on the target. For orientation: inhibition means the relative decrease from the control value, in per cent. A lower inhibition goes with little suppression.

This note sets out measurements from patent US20170176446A1, “Methods for Determining the Oncogenic Condition of Cell, Uses Thereof, and Methods for Treating Cancer” (INSERM (INSTITUT NATIONAL DE LA SANTE ET DE LA RECHERCHE …, priority 2009, published 2017).

The target in test [1] is T1, ChEH (Rattus norvegicus, UniProt Q9JJ46).
T1 construct: 150 μg of rat liver microsome proteins are incubated; from tissue; host or cells: rat liver microsomes
T1 sequence (Q9JJ46 1-230): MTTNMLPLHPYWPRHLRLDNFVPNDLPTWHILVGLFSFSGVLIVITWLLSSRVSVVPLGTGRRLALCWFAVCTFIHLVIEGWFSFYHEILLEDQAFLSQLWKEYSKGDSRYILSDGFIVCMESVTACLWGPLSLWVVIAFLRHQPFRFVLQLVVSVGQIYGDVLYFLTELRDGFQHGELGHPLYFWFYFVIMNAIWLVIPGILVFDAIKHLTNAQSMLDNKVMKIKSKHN
Description: Determination of the Ki for ChEH on rat liver microsome proteins (Dixon method). The settings on record: 150 μg rat liver microsome proteins, [14C]CEα. The format is biochemical. In general terms: Liver microsomes are vesicles of endoplasmic reticulum, rich in cytochrome P450 enzymes.

The test system of the next test is C6. The test is described as follows: Inhibition of OCDO production by PBPE in C6. The format is cell-based. The note with it: Rattus norvegicus, 40 μM PBPE, 48 hours. The procedure: (§1) An analogous experiment was reproduced with different cell lines, with the cells tested being incubated for 48 hours in a 40 μM solution of PBPE. It was noted that the OCDO was 100% inhibited for all the lines in the following table that were tested:
(§2) Generally, in order to establish the percentages of OCDO inhibition from the thin-layer chromatography (TLC) plates obtained as in assay 2, the radioactive metabolites are identified and quantified on the basis of said plates using a europium-sensitive plate of GP Phosphor screen type (GE Healthcare) and a Storm 840 phosphorimagor (GE Healthcare). The proportion of radiolabeled oxysterols is determined on the autoradiogram obtained by densitometry using the Image Quant 5.2 software. The percentage is calculated on the basis of the ratio between the amount of oxysterols quantified divided by the sum of the amounts of oxysterols (CEE+CE+CT+OCDO). Since the CEE (CE ester) originates exclusively from the CE, the percentage CE is calculated on the basis of the ratio (CE+CEE)/(CE+CEE+CT+OCDO).

The target in test [2] is T2, ChEH (Homo sapiens, UniProt Q15125).
T2 construct: MCF7 tumor cells, which originate from the American Tissue Culture Collection (ATCC), were used; host or cells: MCF7
T2 sequence (Q15125 whole entry): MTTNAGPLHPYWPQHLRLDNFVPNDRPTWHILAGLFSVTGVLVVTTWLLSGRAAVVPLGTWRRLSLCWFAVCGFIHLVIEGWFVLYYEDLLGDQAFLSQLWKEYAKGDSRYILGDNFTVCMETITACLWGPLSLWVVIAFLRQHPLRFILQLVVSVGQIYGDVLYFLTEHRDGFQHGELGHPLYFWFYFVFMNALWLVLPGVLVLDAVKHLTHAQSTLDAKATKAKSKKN
The test is described as follows: Inhibition of ChEH activity in MCF7 cells (TLC of [14C]CE conversion). The settings on record: tamoxifen 0.01-5 μM with [14C]CEα; PBPE 0.01-10 μM with [14C]CEβ. The format is cell-based. The method, then:
For this experiment, an aminoalkyl sterol included in French patent 2 838 741 (and also see: de Medina et al., J Med Chem: 2009, vol. 52, No. 23, p. 7765-7777), having the formula: 6-N-[2-(3H-imidazol-4-yl)ethylamino]cholestane-3β,5α-diol (DDA), was chosen. […]
A thin-layer chromatography was carried out, the plate of which has been reproduced in FIG. 23. On this plate, the incubation is carried out, for lane 1, with [^14C]CE; for lane 2, with [^14C]CT; for lane 3, with the vehicle solvent, which is the same as that used for assays 1 to 5; for lane 4, with [14C]CE and 0.1 μM of the aminoalkyl sterol; and for lane 5, with [^14C]CE and a concentration of 1 μM of the aminoalkyl sterol.

In another test the test system is MDA-MB-231. The test is described as follows: Inhibition of OCDO production by PBPE in MDA-MB-231. The test is classed as cell-based. The note with it: Homo sapiens, 40 μM PBPE, 48 hours. The procedure:
as §1, §2

As to `c1ccc(Cc2ccc(OCCN3CCCC3)cc2)cc1` [PBPE, N,N-pyrrolidino-[(4-benzyl)phenoxy]ethanamine], the affinity at ChEH [1], expressed as Ki, was 26.8 ± 6 nM. For the same molecule, the inhibition at 40 µM in the test with C6 and in the test with MDA-MB-231 was 100% throughout. In addition, the “inhibition of the ChEH activity (3 days) in MCF7 cells” value on ChEH [2] is reported as “Dose-dependent inhibition”.
